Measured values reported in ChEMBL document CHEMBL3112480, “γ-Alkylidene-γ-lactones and isobutylpyrrol-2(5H)-ones analogues to rubrolides as inhibitors of biofilm formation by gram-positive and gram-negative bacteria” (Bioorg Med Chem Lett, 2014).
Converted amounts (≈) assume the structure as drawn.

Tests used:
[1] = system: Streptococcus mutans; assay: Antibacterial activity against Streptococcus mutans ATCC 25175 assessed as effect on planktonic growth at 21.9 ug/ml after 20 hrs relative to control; format: functional
[2] = system: Staphylococcus epidermidis; assay: Antibacterial activity against Staphylococcus epidermidis ATCC 35547 assessed as effect on planktonic growth at 21.9 ug/ml after 20 hrs relative to control; format: functional
[3] = system: Streptococcus mutans; assay: Antibacterial activity against Streptococcus mutans ATCC 25175 assessed as effect on planktonic growth at 0.34 ug/ml after 20 hrs relative to control; format: functional
[4] = system: Staphylococcus aureus; assay: Antibacterial activity against Staphylococcus aureus ATCC 25923 assessed as effect on planktonic growth at 0.34 ug/ml after 20 hrs relative to control; format: functional
[5] = system: Streptococcus mutans; assay: Antibacterial activity against Streptococcus mutans ATCC 25175 assessed as effect on planktonic growth at 0.17 ug/ml after 20 hrs relative to control; format: functional
[6] = system: Pseudomonas aeruginosa; assay: Antibacterial activity against Pseudomonas aeruginosa ATCC 27853 assessed as effect on planktonic growth at 0.34 ug/ml after 20 hrs relative to control; format: functional
[7] = system: Staphylococcus aureus; assay: Antibacterial activity against Staphylococcus aureus ATCC 25923 assessed as effect on planktonic growth at 21.9 ug/ml after 20 hrs relative to control; format: functional
[8] = system: Staphylococcus aureus; assay: Antibacterial activity against Staphylococcus aureus ATCC 25923 assessed as effect on planktonic growth at 43.8 ug/ml after 20 hrs relative to control; format: functional
[9] = system: Streptococcus mutans; assay: Antibacterial activity against Streptococcus mutans ATCC 25175 assessed as effect on planktonic growth at 2.73 ug/ml after 20 hrs relative to control; format: functional
[10] = system: Streptococcus mutans; assay: Antibacterial activity against Streptococcus mutans ATCC 25175 assessed as effect on planktonic growth at 0.68 ug/ml after 20 hrs relative to control; format: functional
[11] = system: Staphylococcus epidermidis; assay: Antibacterial activity against Staphylococcus epidermidis ATCC 35547 assessed as effect on planktonic growth at 87.5 ug/ml after 20 hrs relative to control; format: functional
[12] = system: Pseudomonas aeruginosa; assay: Antibacterial activity against Pseudomonas aeruginosa ATCC 27853 assessed as effect on planktonic growth at 5.5 ug/ml after 20 hrs relative to control; format: functional
[13] = system: Pseudomonas aeruginosa; assay: Antibacterial activity against Pseudomonas aeruginosa ATCC 27853 assessed as effect on planktonic growth at 0.17 ug/ml after 20 hrs relative to control; format: functional
[14] = system: Streptococcus mutans; assay: Antibacterial activity against Streptococcus mutans ATCC 25175 assessed as effect on planktonic growth at 5.5 ug/ml after 20 hrs relative to control; format: functional
[15] = system: Staphylococcus epidermidis; assay: Antibacterial activity against Staphylococcus epidermidis ATCC 35547 assessed as inhibition of biofilm formation after 20 hrs by crystal-violet staining method; format: functional, organism-based
[16] = system: Pseudomonas aeruginosa; assay: Antibacterial activity against Pseudomonas aeruginosa ATCC 27853 assessed as effect on planktonic growth at 10.9 ug/ml after 20 hrs relative to control; format: functional
[17] = system: Pseudomonas aeruginosa; assay: Antibacterial activity against Pseudomonas aeruginosa ATCC 27853 assessed as effect on planktonic growth at 43.8 ug/ml after 20 hrs relative to control; format: functional
[18] = system: Staphylococcus epidermidis; assay: Antibacterial activity against Staphylococcus epidermidis ATCC 35547 assessed as effect on planktonic growth at 0.68 ug/ml after 20 hrs relative to control; format: functional
[19] = system: Streptococcus mutans; assay: Antibacterial activity against Streptococcus mutans ATCC 25175 assessed as effect on planktonic growth at 10.9 ug/ml after 20 hrs relative to control; format: functional
[20] = system: Pseudomonas aeruginosa; assay: Antibacterial activity against Pseudomonas aeruginosa ATCC 27853 assessed as effect on planktonic growth at 2.73 ug/ml after 20 hrs relative to control; format: functional
[21] = system: Staphylococcus epidermidis; assay: Antibacterial activity against Staphylococcus epidermidis ATCC 35547 assessed as effect on planktonic growth at 0.34 ug/ml after 20 hrs relative to control; format: functional
[22] = system: Staphylococcus aureus; assay: Antibacterial activity against Staphylococcus aureus ATCC 25923 assessed as effect on planktonic growth at 0.68 ug/ml after 20 hrs relative to control; format: functional
[23] = system: Streptococcus mutans; assay: Antibacterial activity against Streptococcus mutans ATCC 25175 assessed as effect on planktonic growth at 43.8 ug/ml after 20 hrs relative to control; format: functional
[24] = system: Pseudomonas aeruginosa; assay: Antibacterial activity against Pseudomonas aeruginosa ATCC 27853 assessed as effect on planktonic growth at 0.68 ug/ml after 20 hrs relative to control; format: functional
[25] = system: Staphylococcus aureus; assay: Antibacterial activity against Staphylococcus aureus ATCC 25923 assessed as effect on planktonic growth at 0.17 ug/ml after 20 hrs relative to control; format: functional
[26] = system: Staphylococcus aureus; assay: Antibacterial activity against Staphylococcus aureus ATCC 25923 assessed as effect on planktonic growth at 2.73 ug/ml after 20 hrs relative to control; format: functional
[27] = system: Staphylococcus aureus; assay: Antibacterial activity against Staphylococcus aureus ATCC 25923 assessed as effect on planktonic growth at 87.5 ug/ml after 20 hrs relative to control; format: functional
[28] = system: Staphylococcus aureus; assay: Antibacterial activity against Staphylococcus aureus ATCC 25923 assessed as effect on planktonic growth at 5.5 ug/ml after 20 hrs relative to control; format: functional
[29] = system: Staphylococcus epidermidis; assay: Antibacterial activity against Staphylococcus epidermidis ATCC 35547 assessed as effect on planktonic growth at 1.37 ug/ml after 20 hrs relative to control; format: functional
[30] = system: Staphylococcus epidermidis; assay: Antibacterial activity against Staphylococcus epidermidis ATCC 35547 assessed as effect on planktonic growth at 43.8 ug/ml after 20 hrs relative to control; format: functional
[31] = system: Staphylococcus epidermidis; assay: Antibacterial activity against Staphylococcus epidermidis ATCC 35547 assessed as effect on planktonic growth at 0.17 ug/ml after 20 hrs relative to control; format: functional
[32] = system: Staphylococcus epidermidis; assay: Antibacterial activity against Staphylococcus epidermidis ATCC 35547 assessed as effect on planktonic growth at 5.5 ug/ml after 20 hrs relative to control; format: functional
[33] = system: Pseudomonas aeruginosa; assay: Antibacterial activity against Pseudomonas aeruginosa ATCC 27853 assessed as effect on planktonic growth at 21.9 ug/ml after 20 hrs relative to control; format: functional
[34] = system: Staphylococcus aureus; assay: Antibacterial activity against Staphylococcus aureus ATCC 25923 assessed as effect on planktonic growth at 1.37 ug/ml after 20 hrs relative to control; format: functional
[35] = system: Staphylococcus epidermidis; assay: Antibacterial activity against Staphylococcus epidermidis ATCC 35547 assessed as effect on planktonic growth at 2.73 ug/ml after 20 hrs relative to control; format: functional
[36] = system: Streptococcus mutans; assay: Antibacterial activity against Streptococcus mutans ATCC 25175 assessed as effect on planktonic growth at 1.37 ug/ml after 20 hrs relative to control; format: functional
[37] = system: Staphylococcus aureus; assay: Antibacterial activity against Staphylococcus aureus ATCC 25923 assessed as effect on planktonic growth at 10.9 ug/ml after 20 hrs relative to control; format: functional
[38] = system: Pseudomonas aeruginosa; assay: Antibacterial activity against Pseudomonas aeruginosa ATCC 27853 assessed as effect on planktonic growth at 1.37 ug/ml after 20 hrs relative to control; format: functional
[39] = system: Pseudomonas aeruginosa; assay: Antibacterial activity against Pseudomonas aeruginosa ATCC 27853 assessed as inhibition of biofilm formation after 20 hrs by crystal-violet staining method; format: functional, organism-based
[40] = system: Streptococcus mutans; assay: Antibacterial activity against Streptococcus mutans ATCC 25175 assessed as effect on planktonic growth at 87.5 ug/ml after 20 hrs relative to control; format: functional
[41] = system: Pseudomonas aeruginosa; assay: Antibacterial activity against Pseudomonas aeruginosa ATCC 27853 assessed as effect on planktonic growth at 87.5 ug/ml after 20 hrs relative to control; format: functional
[42] = system: Staphylococcus epidermidis; assay: Antibacterial activity against Staphylococcus epidermidis ATCC 35547 assessed as effect on planktonic growth at 10.9 ug/ml after 20 hrs relative to control; format: functional

`COc1ccc(Br)cc1C1=C(Br)C(=O)O/C1=C\c1cccc(Cl)c1` gave an Activity [1] of -5.8%, an Activity [2] of 8.8% and an Activity [3] of 7.6%. For the same compound, the Activity [4] was 14.5%, the Activity [5] was -1% and the Activity [6] was 0.3%. For the same compound, the Activity [7] was 43.1%, the Activity [8] was 75.8% and the Activity [9] was 16.2%. The Activity [10] was 8.4%, the Activity [11] was 28.4% and the Activity [12] was -19.8%. The Activity [13] was 1.4%, the Activity [14] was 12.4% and the inhibition [15] was “Dose-dependent effect”. It also gave an IC50 ([15]; ATCC 35547, 20 h) of 40 µg/mL (≈ 85 µM), an Activity [16] of -16.9% and an Activity [17] of -9.5%. The Activity [18] was -1.6%, the Activity [19] was 13.4% and the Activity [20] was -21.1%. It also gave an Activity [21] of -6.1%, an Activity [22] of 20% and an Activity [23] of 0.5%. The Activity [24] was -3.1%, the Activity [25] was 13.8% and the Activity [26] was 30.1%. For the same compound, the Activity [27] was 121.6%, the Activity [28] was 36.6% and the Activity [29] was -2.4%. For the same compound, the Activity [30] was 20.6%, the Activity [31] was -1.7% and the Activity [32] was 1.6%. It also gave an Activity [33] of -15%, an Activity [34] of 27% and an Activity [35] of 0.1%. The Activity [36] was 8.9%, the Activity [37] was 43.6% and the Activity [38] was -13.2%. For the same compound, the inhibition [39] was “Dose-dependent effect”, the IC50 ([39]; ATCC 27853, 20 h) was greater than 87.5 µg/mL and the Activity [40] was 14.9%. The Activity [41] was -7.3% and the Activity [42] was 8.6%.
